The values below are quoted from earlier work in patent US7393852B2, “Piperazine derivatives and methods of use” (Amgen Inc., priority 2003, dated 2008).

Peptide text beside a SMILES is read from it.

Consider `NC(N)=NCCC[C@H](NC(=O)[C@H](Cc1ccccc1)NC(=O)[C@@H]1CCCN1C(=O)[C@H](CO)NC(=O)[C@H](Cc1ccccc1)NC(=O)CNC(=O)[C@@H]1CCCN1C(=O)[C@@H]1CCCN1C(=O)[C@@H](N)CCCN=C(N)N)C(=O)O` [BK, Bradykinin] (H-RPPGFSPFR-OH), for which the “half-life of BK in plasma” value is given as “approximately 17 seconds”.
